Measured values reported in patent US20030170221A1, “STREPTOMYCES MEGASPORUS SD5, PROCESS FOR THE ISOLATION THEREOF, NOVEL FIBRINOLYTIC ENZYME PREPARED THEREFROM, PROCESS FOR THE PRODUCTION OF SAID ENZYME AND METHOD OF TREATMENT OF THROMBOLYTIC DISORDERS USING SAID ENZYME” (MAHARASHTRA ASSOC. FOR THE CULTIVATION OF SCIENCE, priority 2001, published 2003).
Read-outs that look alike come from different tables or passages of the source. Square brackets hold non-standard residues; d marks the D form. Peptide text beside a SMILES is read from it. * marks the point of attachment. Sta = CC(C)C[C@H](N)[C@@H](O)CC(=O)O; Isovaleryl = CC(C)CC(=O)*

Experiments:
[1] = system: fibrinolytic enzyme produced by S. megasporus SD5; test: Effect of protease inhibitors on fibrinolytic activity of the crude enzyme (FIG. 5); assay type: biochemical, Streptomyces megasporus SD5
Text: (§1) 1.Control, 2—Antipain—3, Bestatin, —4, Chymostatin, —5. E-64, 6—Leupeptin, 7—Pepstatin, 8 Phosphoramidon, 9—pefabloc, 10—EDTA, 11—EDTA+Ca^++, 12—Aprotinin, 13—Trypsin inhibitor, 14—β-mercaptoethanol, 15—TPCK, 16—1, 10 pheuanthroline, 17—PMSF.
To determine the class to which the enzyme belonged the effect of different protease inhibitors were studied in detail.

[2] = system: actinokinase; test: Effects of inhibitors and metal ions on activity of the purified enzyme; assay type: biochemical, Streptomyces megasporus SD5
Experimental: (§2) Different protease inhibitors were separately dissolved in distilled water/methanol/dimethyl sulphoxide as per manufacturers protocol, so that final concentration of each inhibitor was 1 mM. The enzyme (50 μl) was mixed with same amount (50 μl) of inhibitor and incubate at ambient temperature for 30 min. The residual activity was measured at 55° C. as above using universal protease substrate and compared with that of the control without any inhibitor and the inhibition was determined as percentage taking control as 100% positive.

[3] = system: fibrinolytic enzyme (actinokinase) produced by Streptomyces megasporus SD5, ~35 kDa, wild type; test: Effects of various inhibitors on fibrinolytic activity of the enzyme (FIG. 5); assay type: biochemical; conditions: result in words
Experimental: as §1
The fibrinolytic (thrombolytic) activity was assayed on solid and liquid media (Harverkate & Trass 1974, Lottenberg et al. 1981). The reaction mixture (1 ml) comprised of chromogenic substrates, such as benzoyl-β-alanyl-glycyl-arginine-ρ nitroanilide (20 μmol 1^−1) in 10 mM sodium phosphate buffer, pH 8.0 and incubated at 55° C. for 30 min after addition of 1 ml, enzyme solution containing 0.5 μg protein ml^−1, cooled to room temperature and the liberation of ρ-nitroanilide was measured by increased absorbance recorded at 405 nm using a UV-VIS Spectrophotometer (DU 8B, Beckman, Sweden). One unit of the enzyme was defined as the amount of enzyme that catalysed the formation of 1 ng of ρ-nitroanilide min^−1. The caseinolytic activity was determined by Dunn (1989) in terms of μmol tyrosine min^−1. Protein was determined using Folin Ciocalteau phenol reagent. All the results of growth and assays are the means of three separate experiments.
To determine the class to which the enzyme belonged the effect of different protease inhibitors were studied in detail. As the fibrinolytic enzyme could be used as a therapeutic agent for different types of thrombosis so in vitro clot lysis was studied with both natural and synthetic clots.

[4] = system: actinokinase, fibrinolytic enzyme from Streptomyces megasporus SD5, 35 kDa serine protease, wild type; conditions: 1 mM inhibitor, ambient temperature 30 min; residual activity at 55° C., universal protease substrate
Experimental: as §2

[5] = cited from earlier work
[6] = system: Streptomyces megasporus SD5; test: Antibiotic sensitivity of the strain; assay type: cell-based; conditions: concentration of 50 μg ml^−1
[7] = in vivo
[8] = Table III, available enzymes; cited from earlier work
[9] = system: fibrin; conditions: prior art; cited from earlier work
[10] = Pharmacological properties of thrombolytic agents in acute myocardial infarctions; conditions: for Efficacy (<4 h): acute myocardial infarctions
[11] = reportedly; cited from earlier work
[12] = system: actinokinase, fibrinolytic enzyme from Streptomyces megasporus SD5, 35 kDa serine protease, wild type; test: Michaelis constant with Chromozyme U as substrate, Lineweaver-Burk plot; assay type: biochemical; conditions: in absence of plasminogen
Experimental: The thrombolytic activity was measured on standard fibrin plate using the method of Haverkate-Trass (1974) as mentioned previously and compared with available thrombolytic enzyme, urokinase, Each sample (20 μl) was put on the fibrin clot layer and incubated at both 55° C. and 37° C. for 8 h. The zone of clear areas for standard urokinase and the enzyme of the invention was measured and thrombolytic activities of both enzymes were expressed in terms of Plough units. Amidolytic activity was determined using chromogenic substrates and one unit of activity is defined as the amount of enzyme, which released […] of pNA min^−1. Amydolytic activity in liquid medium was determined using the method by Lottenberg et al (1981). Caseinolytic activity was assayed by the procedure described by Pokorny et al (1979). Protein concentration was estimated by a modification of the Lowry's method (1951).
Substrate specificity of the enzyme was assessed at 405 nm by using various synthetic peptide substrates, (20 μM) tagged with ρ-nitranilide acetate and resorufin, in the reaction mixture. The Michaelis constant (Km) was determined using Chromozyme U as substrate using line weaver Burk plot method (Jayaraman 1985).

[13] = inhibitor 1 mM, purified enzyme, universal protease substrate, 55° C.

O=S(=O)(F)Cc1ccccc1 [PMSF]
effect of inhibitor on fibrinolytic activity of the enzyme ([1]; crude enzyme, FIG. 5): strongly repressed
effect of inhibitor on enzymatic activity [2, 13]: highly repressed

CC(C)C[C@H](NC(=O)[C@@H](O)[C@H](N)Cc1ccccc1)C(=O)O [Bestatin]
effect of inhibitor on fibrinolytic activity of the enzyme ([1]; crude enzyme, FIG. 5): strongly repressed
effect of inhibitor on enzymatic activity [2, 13]: highly repressed

Cl.NCCc1ccc(S(=O)(=O)F)cc1 [Pefabloc, pefabloc]
effect of inhibitor on fibrinolytic activity of the enzyme ([1]; crude enzyme, FIG. 5): strongly repressed
effect of inhibitor on enzymatic activity [2, 13]: highly repressed

CC(C)C[C@H](NP(=O)(O)O[C@@H]1O[C@@H](C)[C@H](O)[C@@H](O)[C@H]1O)C(=O)N[C@@H](Cc1c[nH]c2ccccc12)C(=O)O [phosphoramidin]
effect of inhibitor on fibrinolytic activity [3]: No change in the activity

O=C(O)CN(CCN(CC(=O)O)CC(=O)O)CC(=O)O [EDTA]
effect of inhibitor on fibrinolytic activity of the enzyme [1]: inhibitory effect
effect of inhibitor on fibrinolytic activity [3]: inhibitory effect
effect of inhibitor on enzymatic activity [2]: inhibitory effect
effect of inhibitor on enzymatic activity [4]: inhibitory effect

T-PA: tissue plasmiogen activators
Efficacy (<4 h) ([5]; acute myocardial infarctions, data from the literature): 70
Half life ([5]; in vivo): 5 min

CC(=O)N[C@@H](CC(C)C)C(=O)N[C@@H](CC(C)C)C(=O)N[C@H](C=O)CCCNC(=N)N [Leupeptin]
effect of inhibitor on fibrinolytic activity of the enzyme ([1]; crude enzyme, FIG. 5): moderately sensitive
effect of inhibitor on enzymatic activity [2, 13]: moderately sensitive

C=C(NC(=O)C(=C)NC(=O)c1csc(C2=N[C@@H]3c4csc(n4)[C@H]4NC(=O)c5csc(n5)[C@H]([C@](C)(O)[C@@H](C)O)NC(=O)[C@H]5CSC(=N5)/C(=C/C)NC(=O)[C@H]([C@@H](C)O)NC(=O)c5csc(n5)[C@]3(CC2)NC(=O)[C@H](C)NC(=O)C(=C)NC(=O)[C@H](C)NC(=O)[C@H]([C@@H](C)CC)N[C@@H]2C=Cc3c([C@H](C)O)cc(nc3[C@H]2O)C(=O)O[C@@H]4C)n1)C(N)=O [thiostrepton]
inhibition of the microorganism [6]: inhibited

CC(C)C[C@H](NC(=O)[C@H]1O[C@@H]1C(=O)O)C(=O)NCCCCN=C(N)N [E-64]
effect of inhibitor on enzymatic activity [2, 13]: Insignificant inhibition

c1cnc2c(c1)ccc1cccnc12 [1,10 phenanthroline]
effect of inhibitor on fibrinolytic activity of the enzyme ([1]; crude enzyme, FIG. 5): No change
effect of inhibitor on fibrinolytic activity [3]: No change in the activity
effect of inhibitor on enzymatic activity [2, 13]: No change in activity

CC(C)CC(=O)N[C@H](C(=O)N[C@H](C(=O)N[C@@H](CC(C)C)[C@@H](O)CC(=O)N[C@@H](C)C(=O)N[C@@H](CC(C)C)[C@@H](O)CC(=O)O)C(C)C)C(C)C [Pepstatin] (Isovaleryl-VV[Sta]A[Sta]-OH)
effect of inhibitor on enzymatic activity [2, 13]: Insignificant inhibition

CC(C)C[C@H](NP(=O)(O)O[C@@H]1O[C@@H](C)[C@H](O)[C@@H](O)[C@H]1O)C(=O)N[C@@H](Cc1c[nH]c2ccccc12)C(=O)O [Phosphoramidon]
effect of inhibitor on fibrinolytic activity of the enzyme ([1]; crude enzyme, FIG. 5): No change
effect of inhibitor on enzymatic activity [2, 13]: No change in activity

Urokinase
Half life [7]: 16 min
Optimum Temperature [8]: 37 °C
Optimum pH [8]: 7.5
affinity for fibrin [9]: do not show any affinity
Efficacy (<4 h) [10]: 65

CCC[C@@H]1C[C@@H](C(=O)N[C@@H]([C@H]2O[C@H](SC)[C@H](O)[C@@H](O)[C@H]2O)[C@@H](C)O)N(C)C1 [lincomycin]
inhibition of the microorganism [6]: inhibited

Streptokinase: prior art plasminogen activator
failure rate as thrombolytic agent [11]: ≤ 25%
affinity for fibrin [9]: do not show any affinity
Efficacy (<4 h) [10]: 65
Adverse effects ([10]; in vivo): Haemorragic
Half life ([10]; in vivo): 23 min

Aprotinin
effect of inhibitor on fibrinolytic activity of the enzyme ([1]; crude enzyme, FIG. 5): strongly repressed
effect of inhibitor on enzymatic activity [2, 13]: highly repressed

CC(C)C[C@H](NC(=O)[C@@H](NC(=O)N[C@@H](Cc1ccccc1)C(=O)O)[C@@H]1CCN=C(N)N1)C(=O)N[C@H](C=O)Cc1ccccc1 [Chymostatin]
effect of inhibitor on fibrinolytic activity of the enzyme ([1]; crude enzyme, FIG. 5): strongly repressed
effect of inhibitor on enzymatic activity [2, 13]: highly repressed

Cc1ccc(S(=O)(=O)N[C@@H](Cc2ccccc2)C(=O)CCl)cc1 [TPCK]
effect of inhibitor on fibrinolytic activity of the enzyme ([1]; crude enzyme, FIG. 5): moderately sensitive
effect of inhibitor on enzymatic activity [2, 13]: moderately sensitive

OCCS [β-mercaptoethanol]
effect of inhibitor on enzymatic activity [2, 13]: Insignificant inhibition

N=C(N)NCCC[C@H](NC(=O)CNC(=O)CCNC(=O)c1ccccc1)C(=O)Nc1ccc([N+](=O)[O-])cc1 [chromozyme U, Benzoyl-β-ala-gly-arg-4-ρNA] (HELM PEPTIDE1{[O=C(c1ccccc1)[*:2]].[bAla].G.R.[O=[N+]([O-])c1ccc(N[*:1])cc1]}$$$$V2.0)
Km [12]: 2.2 µM
